{
  "source": "patent US9707305B2",
  "about": "“Formulas for diagnosing and treating hormone-dependent cancers and cancers of the organs responsible for steroid hormone synthesis” (Commissariat à l'énergie atomique et aux énergies …, priority 2011, dated 2017)",
  "test": "Biodistribution of the nano-emulsion of Example 1.1 in male mice (Tables 15 to 21)",
  "type": "in vivo",
  "settings": "FVB male mouse",
  "experimental": "In the following examples, the radioactivity was counted with the TRiCarb Counter (Ref: Packard, Liquid Scintillation Analyzers; Models 2200CA).\nFluobeam 700 (Fluoptics) is the apparatus with which the whole of the organs from the biodistribution were analyzed in fluorescence as well as the one with which the biodistribution kinetics of the nano-emulsions were established in vivo. This imaging system allows viewing of the fluorescence in spectral bands from 700 to 850 nm for a 650 nm excitation. The apparatus consists of an electric case containing the laser of class 3B, its power supply and an optical head containing the CCD camera. […]",
  "data": [
    {"molecule": "CCCCCCCCCCCCCCCCCCN1/C(=C/C=C/C=C/C2=[N+](CCCCCCCCCCCCCCCCCC)c3ccccc3C2(C)C)C(C)(C)c2ccccc21.[O-][Cl+3]([O-])([O-])[O-]", "note": "[DiD, l,r-dioctadécyl-3,3,3′,3′-tetramethylindodicarbocyanine (DiD) perchlorate]", "values": [
      {"measurement": "fluorescence intensity in Adrenal gland", "setting": "2 h", "value": 779.1},
      {"measurement": "fluorescence intensity in Adrenal gland", "setting": "4 h", "value": 536.1},
      {"measurement": "fluorescence intensity in Adrenal gland", "setting": "6 h", "value": 721.9},
      {"measurement": "fluorescence intensity in Adrenal gland", "setting": "16 h", "value": 1086.2},
      {"measurement": "fluorescence intensity in Adrenal gland", "setting": "24 h", "value": 1105.9},
      {"measurement": "fluorescence intensity in Adrenal gland", "setting": "48 h", "value": 783.7},
      {"measurement": "fluorescence intensity in Adrenal gland", "setting": "72 h", "value": 717.3},
      {"measurement": "fluorescence intensity in Brain", "setting": "2 h", "value": 186.5},
      {"measurement": "fluorescence intensity in Brain", "setting": "4 h", "value": 150.6},
      {"measurement": "fluorescence intensity in Brain", "setting": "6 h", "value": 235.9},
      {"measurement": "fluorescence intensity in Brain", "setting": "16 h", "value": 134.7},
      {"measurement": "fluorescence intensity in Brain", "setting": "24 h", "value": 109.3},
      {"measurement": "fluorescence intensity in Brain", "setting": "48 h", "value": 160.4},
      {"measurement": "fluorescence intensity in Brain", "setting": "72 h", "value": 14.8},
      {"measurement": "fluorescence intensity in Fat", "setting": "2 h", "value": 184.0},
      {"measurement": "fluorescence intensity in Fat", "setting": "4 h", "value": 128.3},
      {"measurement": "fluorescence intensity in Fat", "setting": "6 h", "value": 221.1},
      {"measurement": "fluorescence intensity in Fat", "setting": "16 h", "value": 117.0},
      {"measurement": "fluorescence intensity in Fat", "setting": "24 h", "value": 142.1},
      {"measurement": "fluorescence intensity in Fat", "setting": "48 h", "value": 185.1},
      {"measurement": "fluorescence intensity in Fat", "setting": "72 h", "value": 78.0},
      {"measurement": "fluorescence intensity in Heart", "setting": "2 h", "value": 427.6},
      {"measurement": "fluorescence intensity in Heart", "setting": "4 h", "value": 306.9},
      {"measurement": "fluorescence intensity in Heart", "setting": "6 h", "value": 253.8},
      {"measurement": "fluorescence intensity in Heart", "setting": "16 h", "value": 281.5},
      {"measurement": "fluorescence intensity in Heart", "setting": "24 h", "value": 239.7},
      {"measurement": "fluorescence intensity in Heart", "setting": "48 h", "value": 178.1},
      {"measurement": "fluorescence intensity in Heart", "setting": "72 h", "value": 142.3},
      {"measurement": "fluorescence intensity in Intestine", "setting": "2 h", "value": 392.1},
      {"measurement": "fluorescence intensity in Intestine", "setting": "4 h", "value": 336.2},
      {"measurement": "fluorescence intensity in Intestine", "setting": "6 h", "value": 378.0},
      {"measurement": "fluorescence intensity in Intestine", "setting": "16 h", "value": 640.4},
      {"measurement": "fluorescence intensity in Intestine", "setting": "24 h", "value": 621.0},
      {"measurement": "fluorescence intensity in Intestine", "setting": "48 h", "value": 381.6},
      {"measurement": "fluorescence intensity in Intestine", "setting": "72 h", "value": 267.8},
      {"measurement": "fluorescence intensity in Kidney", "setting": "2 h", "value": 601.1},
      {"measurement": "fluorescence intensity in Kidney", "setting": "4 h", "value": 505.0},
      {"measurement": "fluorescence intensity in Kidney", "setting": "6 h", "value": 427.7},
      {"measurement": "fluorescence intensity in Kidney", "setting": "16 h", "value": 343.0},
      {"measurement": "fluorescence intensity in Kidney", "setting": "24 h", "value": 323.1},
      {"measurement": "fluorescence intensity in Kidney", "setting": "48 h", "value": 168.3},
      {"measurement": "fluorescence intensity in Kidney", "setting": "72 h", "value": 160.3},
      {"measurement": "fluorescence intensity in Liver", "setting": "2 h", "value": 831.9},
      {"measurement": "fluorescence intensity in Liver", "setting": "4 h", "value": 813.0},
      {"measurement": "fluorescence intensity in Liver", "setting": "6 h", "value": 847.4},
      {"measurement": "fluorescence intensity in Liver", "setting": "16 h", "value": 1157.2},
      {"measurement": "fluorescence intensity in Liver", "setting": "24 h", "value": 1152.7},
      {"measurement": "fluorescence intensity in Liver", "setting": "48 h", "value": 988.2},
      {"measurement": "fluorescence intensity in Liver", "setting": "72 h", "value": 648.0},
      {"measurement": "fluorescence intensity in Lung", "setting": "2 h", "value": 559.9},
      {"measurement": "fluorescence intensity in Lung", "setting": "4 h", "value": 446.4},
      {"measurement": "fluorescence intensity in Lung", "setting": "6 h", "value": 426.0},
      {"measurement": "fluorescence intensity in Lung", "setting": "16 h", "value": 423.5},
      {"measurement": "fluorescence intensity in Lung", "setting": "24 h", "value": 406.0},
      {"measurement": "fluorescence intensity in Lung", "setting": "48 h", "value": 346.5},
      {"measurement": "fluorescence intensity in Lung", "setting": "72 h", "value": 286.6},
      {"measurement": "fluorescence intensity in Muscle", "setting": "2 h", "value": 176.7},
      {"measurement": "fluorescence intensity in Muscle", "setting": "4 h", "value": 152.3},
      {"measurement": "fluorescence intensity in Muscle", "setting": "6 h", "value": 169.3},
      {"measurement": "fluorescence intensity in Muscle", "setting": "16 h", "value": 281.9},
      {"measurement": "fluorescence intensity in Muscle", "setting": "24 h", "value": 144.9},
      {"measurement": "fluorescence intensity in Muscle", "setting": "48 h", "value": 131.7},
      {"measurement": "fluorescence intensity in Muscle", "setting": "72 h", "value": 109.2},
      {"measurement": "fluorescence intensity in Pancreas", "setting": "2 h", "value": 255.1},
      {"measurement": "fluorescence intensity in Pancreas", "setting": "4 h", "value": 295.0},
      {"measurement": "fluorescence intensity in Pancreas", "setting": "6 h", "value": 347.0},
      {"measurement": "fluorescence intensity in Pancreas", "setting": "16 h", "value": 332.6},
      {"measurement": "fluorescence intensity in Pancreas", "setting": "24 h", "value": 268.9},
      {"measurement": "fluorescence intensity in Pancreas", "setting": "48 h", "value": 266.2},
      {"measurement": "fluorescence intensity in Pancreas", "setting": "72 h", "value": 160.6},
      {"measurement": "fluorescence intensity in Salivary gland", "setting": "2 h", "value": 310.0},
      {"measurement": "fluorescence intensity in Salivary gland", "setting": "4 h", "value": 297.8},
      {"measurement": "fluorescence intensity in Salivary gland", "setting": "6 h", "value": 488.5},
      {"measurement": "fluorescence intensity in Salivary gland", "setting": "16 h", "value": 838.8},
      {"measurement": "fluorescence intensity in Salivary gland", "setting": "24 h", "value": 501.1},
      {"measurement": "fluorescence intensity in Salivary gland", "setting": "48 h", "value": 489.7},
      {"measurement": "fluorescence intensity in Salivary gland", "setting": "72 h", "value": 430.2},
      {"measurement": "fluorescence intensity in Seminal gland", "setting": "4 h", "value": 179.5},
      {"measurement": "fluorescence intensity in Seminal gland", "setting": "6 h", "value": 261.0},
      {"measurement": "fluorescence intensity in Seminal gland", "setting": "16 h", "value": 163.0},
      {"measurement": "fluorescence intensity in Seminal gland", "setting": "24 h", "value": 170.6},
      {"measurement": "fluorescence intensity in Seminal gland", "setting": "48 h", "value": 166.7},
      {"measurement": "fluorescence intensity in Seminal gland", "setting": "72 h", "value": 74.4},
      {"measurement": "fluorescence intensity in Seminal glands", "setting": "Seminal glands, 2 h", "value": 175.3},
      {"measurement": "fluorescence intensity in Spleen", "setting": "2 h", "value": 455.7},
      {"measurement": "fluorescence intensity in Spleen", "setting": "4 h", "value": 407.4},
      {"measurement": "fluorescence intensity in Spleen", "setting": "6 h", "value": 488.6},
      {"measurement": "fluorescence intensity in Spleen", "setting": "16 h", "value": 373.3},
      {"measurement": "fluorescence intensity in Spleen", "setting": "24 h", "value": 638.0},
      {"measurement": "fluorescence intensity in Spleen", "setting": "48 h", "value": 656.7},
      {"measurement": "fluorescence intensity in Spleen", "setting": "72 h", "value": 278.0},
      {"measurement": "fluorescence intensity in Testicle", "setting": "2 h", "value": 639.9},
      {"measurement": "fluorescence intensity in Testicle", "setting": "4 h", "value": 470.9},
      {"measurement": "fluorescence intensity in Testicle", "setting": "6 h", "value": 723.1},
      {"measurement": "fluorescence intensity in Testicle", "setting": "16 h", "value": 525.4},
      {"measurement": "fluorescence intensity in Testicle", "setting": "48 h", "value": 648.6},
      {"measurement": "fluorescence intensity in Testicle", "setting": "72 h", "value": 481.2}
    ]}
  ]
}
